Reference: ChEMBL document CHEMBL1148182, “Flavonone and chalcone derivatives from Cryptocarya kurzii” (J Nat Prod, 1993)
≈ marks a conversion by molar mass, not a printed value.

Test system: KB
Test: Cytotoxicity against human KB cells
Type: functional, cell-based

SMILES: O=C1CCC[C@@H]2C[C@H](C[C@](O)(/C=C/c3ccccc3)O2)c2c(cc(O)c(C(=O)/C=C/c3ccccc3)c2O)O1 [KURZICHALCOLACTONE]
- IC50: 15 µg/mL (≈ 28.5 µM)

SMILES: O=C1CCC[C@@H]2C[C@H](C[C@](O)(/C=C/c3ccccc3)O2)c2c(cc(O)c3c2O[C@H](c2ccccc2)CC3=O)O1 [KURZIFLAVOLACTONE B]
- IC50: 4 µg/mL (≈ 7.6 µM)
